Among the data in patent US10493125B2 (Merck Sharp & Dohme Corp., priority 2015, dated 2019) are EC50 and Ratio values, retold here.

Where two headings read alike, the source gives them in different places. Starred links: 1 amine or outer side, 2 acyl side, 3 side chain; linkers in the order of their positions; H or OH if unused. Non-standard residues stand in square brackets, D forms with d. Residues, ends and D or L forms follow the SMILES beside them. Groups on a side chain read outwards from the residue. No end group written: not given here. *: point of attachment. γGlu = O=C(O)[C@H](CCC(=O)[*:2])N[*:1]; Palmitoyl = CCCCCCCCCCCCCCCC(=O)* Bounds are passed on as bounds.

In one experiment the target is T1, human GCGR (Homo sapiens, UniProt P47871).
T1 construct: expressed in transfected cells
T1 sequence (P47871 26-477): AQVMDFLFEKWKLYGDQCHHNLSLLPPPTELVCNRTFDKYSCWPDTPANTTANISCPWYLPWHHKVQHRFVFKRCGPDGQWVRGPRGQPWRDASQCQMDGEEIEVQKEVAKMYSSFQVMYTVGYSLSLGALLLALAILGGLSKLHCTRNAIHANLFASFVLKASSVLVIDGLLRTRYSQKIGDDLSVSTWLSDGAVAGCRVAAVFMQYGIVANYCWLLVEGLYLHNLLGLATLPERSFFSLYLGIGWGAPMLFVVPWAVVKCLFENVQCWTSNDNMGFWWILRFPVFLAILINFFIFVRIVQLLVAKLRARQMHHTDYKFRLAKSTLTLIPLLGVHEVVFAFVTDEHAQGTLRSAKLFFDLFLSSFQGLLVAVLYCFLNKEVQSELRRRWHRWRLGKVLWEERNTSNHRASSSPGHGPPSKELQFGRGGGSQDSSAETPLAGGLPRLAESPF
Description: cAMP activity assay (HitHunter cAMP XS), cells expressing human GCGR. Format: cell-based. The settings on record: for EC50: read-out: EC50 hGCGR; for Ratio: EC50 hGCGR divided by EC50 hGLP1. The procedure:
(§1) Peptides were dissolved in 100% DMSO and serially diluted to generate 10 point titrations. The peptide solutions were then transferred into 384-well assay plates (150 nL/well). Assay ready frozen cells expressing human GLP1R or human GCGR were suspended in growth media consisting of DMEM medium (GIBCO), 10% FBS (GIBCO), 1×NEAA(GIBCO), 1× P/S (GIBCO), 10 ug/ml Blasticidin (GIBCO) and 200 μg/mL Hygromycin (GIBCO). […] The cell suspensions (15 μL) were then added to the assay plates containing the peptide solutions (30,000 cells/well for human GCGR; 10,000 cells/well for human GLP1R). The cells were incubated for 1 hour at room temperature in the dark. Production of cAMP was determined using HitHunter™ cAMPXS kits (DiscoverX) following manufacturer protocol. The plates were incubated for overnight at room temperature in the dark. Luminescence was measured using an EnVision Multilabel plate reader (Perkin Elmer). […] EC50 values were calculated using uses a 4 parameter logistic fit based on the Levenberg-Marquardt algorithm.

The target of the next experiment is T2, human GLP1R (Homo sapiens, UniProt P43220).
T2 construct: expressed in transfected cells
T2 sequence (P43220 24-463): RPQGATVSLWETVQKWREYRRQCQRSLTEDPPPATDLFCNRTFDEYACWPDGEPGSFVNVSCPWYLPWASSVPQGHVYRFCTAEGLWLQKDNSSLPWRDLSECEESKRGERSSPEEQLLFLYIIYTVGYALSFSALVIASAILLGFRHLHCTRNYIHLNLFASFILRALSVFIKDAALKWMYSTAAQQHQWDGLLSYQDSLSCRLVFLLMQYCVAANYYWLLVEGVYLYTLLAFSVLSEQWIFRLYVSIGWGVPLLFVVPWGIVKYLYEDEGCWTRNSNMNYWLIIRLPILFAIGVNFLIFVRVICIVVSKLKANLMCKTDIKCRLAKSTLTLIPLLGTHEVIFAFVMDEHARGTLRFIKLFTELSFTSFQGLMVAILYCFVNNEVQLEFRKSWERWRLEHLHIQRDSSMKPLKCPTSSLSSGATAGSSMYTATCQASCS
Description: cAMP activity assay (HitHunter cAMP XS), cells expressing human GLP1R. Type of experiment: cell-based. The protocol:
as §1

[1] abbreviates: Table 2, cAMP production, read-out: EC50 hGLP1R.
Setting [2] is: Table 7, lipidated analogs vs parental peptides.
The mark [3] stands for this setting: Table 7, lipidated analogs vs parental peptides, read-out: EC50 hGLP1.

For `CC(C)C[C@H](NC(=O)[C@H](CC(C)C)NC(=O)[C@H](Cc1c[nH]c2ccccc12)NC(=O)[C@H](CCC(N)=O)NC(=O)[C@@H](NC(=O)[C@H](Cc1ccccc1)NC(=O)[C@H](CC(=O)O)NC(=O)[C@H](CCC(N)=O)NC(=O)[C@H](C)NC(=O)[C@H](CCCNC(=N)N)NC(=O)[C@H](CCCNC(=N)N)NC(=O)[C@H](CO)NC(=O)[C@H](CC(=O)O)NC(=O)[C@H](CC(C)C)NC(=O)[C@H](Cc1ccc(O)cc1)NC(=O)[C@H](CCCCN)NC(=O)[C@H](CO)NC(=O)[C@H](Cc1ccc(O)cc1)NC(=O)[C@H](CC(=O)O)NC(=O)[C@H](CO)NC(=O)[C@@H](NC(=O)[C@H](Cc1ccccc1)NC(=O)[C@@H](NC(=O)CNC(=O)[C@H](CCC(N)=O)NC(=O)[C@H](CO)NC(=O)[C@@H](N)Cc1c[nH]cn1)[C@@H](C)O)[C@@H](C)O)C(C)C)C(=O)N[C@@H](CC(N)=O)C(=O)N[C@@H](CCC(N)=O)C(N)=O` [PD57], the EC50 at human GCGR (Table 2, cAMP production) was determined as 0.02 nM; at human GLP1R (setting [1]), 0.01 nM.
For `CC(C)C[C@H](NC(=O)[C@H](CC(C)C)NC(=O)[C@H](Cc1c[nH]c2ccccc12)NC(=O)[C@H](CCC(N)=O)NC(=O)[C@@H](NC(=O)[C@H](Cc1ccccc1)NC(=O)[C@H](CC(=O)O)NC(=O)[C@H](CCC(N)=O)NC(=O)[C@H](C)NC(=O)[C@H](CCCNC(=N)N)NC(=O)[C@H](CCCNC(=N)N)NC(=O)[C@H](CO)NC(=O)[C@H](CC(=O)O)NC(=O)[C@H](CC(C)C)NC(=O)[C@H](Cc1ccc(O)cc1)NC(=O)[C@H](CCCCN)NC(=O)[C@H](CO)NC(=O)[C@H](Cc1ccc(O)cc1)NC(=O)[C@H](CC(=O)O)NC(=O)[C@H](CO)NC(=O)[C@@H](NC(=O)[C@H](Cc1ccccc1)NC(=O)[C@@H](NC(=O)CNC(=O)[C@H](CCC(N)=O)NC(=O)[C@H](CO)NC(=O)[C@@H](N)Cc1c[nH]cn1)[C@@H](C)O)[C@@H](C)O)C(C)C)C(=O)N[C@@H](CC(=O)O)C(=O)N[C@@H](CO)C(N)=O` [PD59], in that order: 0.02 nM and 0.01 nM.
Take `CCCCCCCCCCCCCCCC(=O)N[C@@H](CCC(=O)N[C@@H](CCC(=O)NCCCC[C@H](NC(=O)[C@H](CC(=O)O)NC(=O)[C@H](CO)NC(=O)[C@@H](NC(=O)[C@H](Cc1ccccc1)NC(=O)[C@@H](NC(=O)CNC(=O)[C@H](CCC(N)=O)NC(=O)[C@@H](CO)NC(=O)[C@@H](N)Cc1c[nH]cn1)[C@@H](C)O)[C@@H](C)O)C(=O)N[C@@H](CO)C(=O)N[C@@H](CCCCN)C(=O)N[C@@H](Cc1ccc(O)cc1)C(=O)N[C@@H](CC(C)C)C(=O)N[C@@H](CC(=O)O)C(=O)N[C@@H](CC(N)=O)C(=O)N[C@@H](CCCCN)C(=O)N[C@@H](CCCNC(=N)N)C(=O)N[C@@H](C)C(=O)N[C@@H](CCC(N)=O)C(=O)N[C@@H](CC(=O)O)C(=O)N[C@@H](Cc1ccccc1)C(=O)N[C@H](C(=O)N[C@@H](CCC(N)=O)C(=O)N[C@@H](Cc1c[nH]c2ccccc12)C(=O)N[C@@H](CC(C)C)C(=O)N[C@@H](CCSC)C(=O)N[C@@H](CCC(N)=O)C(=O)N[C@H](C(N)=O)[C@@H](C)O)C(C)C)C(=O)O)C(=O)O` [TP534] (H-H[dS]QGTFTSDK([γGlu-γGlu-Palmitoyl])SKYLDNKRAQDFVQWLMQT-NH2; N-terminus assumed): the Ratio on human GCGR (Table 7) turned out to be 0.5. For the same compound, the values for the EC50 at human GCGR (setting [2]) and on human GLP1R (setting [3]) were 0.01 nM and 0.02 nM, respectively.
On to `CCCCCCCCCCCCCCCC(=O)N[C@@H](CCC(=O)N[C@@H](CCC(=O)NCCCC[C@H](NC(=O)[C@H](CC(=O)O)NC(=O)[C@H](CO)NC(=O)[C@@H](NC(=O)[C@H](Cc1ccccc1)NC(=O)[C@@H](NC(=O)CNC(=O)[C@H](CCC(N)=O)NC(=O)[C@@H](CO)NC(=O)[C@@H](N)Cc1c[nH]cn1)[C@@H](C)O)[C@@H](C)O)C(=O)N[C@@H](CO)C(=O)N[C@@H](CCCCN)C(=O)N[C@@H](Cc1ccc(O)cc1)C(=O)N[C@@H](CC(C)C)C(=O)N[C@@H](CC(=O)O)C(=O)N[C@@H](CO)C(=O)N[C@@H](CCCNC(=N)N)C(=O)N[C@@H](CCCNC(=N)N)C(=O)N[C@@H](C)C(=O)N[C@@H](Cc1c[nH]cn1)C(=O)N[C@@H](CC(=O)O)C(=O)N[C@@H](Cc1ccccc1)C(=O)N[C@H](C(=O)N[C@@H](CCC(N)=O)C(=O)N[C@@H](Cc1c[nH]c2ccccc12)C(=O)N[C@@H](CC(C)C)C(=O)N[C@@H](CC(C)C)C(=O)N[C@@H](CC(N)=O)C(=O)N[C@H](C(N)=O)[C@@H](C)O)C(C)C)C(=O)O)C(=O)O` [TP535] (H-H[dS]QGTFTSDK([γGlu-γGlu-Palmitoyl])SKYLDSRRAHDFVQWLLNT-NH2; N-terminus assumed), for which the Ratio on human GCGR (Table 7) is 0.4. The EC50 on human GCGR (setting [2]) worked out at 0.02 nM; on human GLP1R (setting [3]) it was 0.05 nM.
Regarding `CC(C)C[C@H](NC(=O)[C@H](CC(C)C)NC(=O)[C@H](CCCCN)NC(=O)[C@H](CO)NC(=O)[C@H](Cc1ccc(O)cc1)NC(=O)[C@H](CC(=O)O)NC(=O)[C@H](CO)NC(=O)[C@H](CC(C)C)NC(=O)[C@H](Cc1ccccc1)NC(=O)[C@@H](NC(=O)CNC(=O)[C@H](CCC(N)=O)NC(=O)[C@@H](CO)NC(=O)[C@@H](N)Cc1c[nH]cn1)[C@@H](C)O)C(=O)N[C@@H](CC(=O)O)C(=O)N[C@@H](CO)C(=O)N[C@@H](CCCNC(=N)N)C(=O)N[C@@H](C)C(=O)N[C@@H](C)C(=O)N[C@@H](CCC(N)=O)C(=O)N[C@@H](CC(=O)O)C(=O)N[C@@H](Cc1ccccc1)C(=O)N[C@H](C(=O)N[C@@H](CCC(N)=O)C(=O)N[C@@H](Cc1c[nH]c2ccccc12)C(=O)N[C@@H](CC(C)C)C(=O)N[C@@H](CC(C)C)C(=O)N[C@@H](CCC(N)=O)C(=O)N[C@H](C(N)=O)[C@@H](C)O)C(C)C` [TP552] (H-H[dS]QGTFLSDYSKLLDSRAAQDFVQWLLQT-NH2; N-terminus assumed), the Ratio at human GCGR (Table 7) is reported as 0.004. Moreover, the EC50 at human GCGR (setting [2]) is 0.02 nM; at human GLP1R (setting [3]) it was no less than 5 nM.
For `CCCCCCCCCCCCCCCC(=O)N[C@@H](CCC(=O)N[C@@H](CCC(=O)NCCCC[C@H](NC(=O)[C@H](CC(=O)O)NC(=O)[C@H](CO)NC(=O)[C@@H](NC(=O)[C@H](Cc1ccccc1)NC(=O)[C@@H](NC(=O)CNC(=O)[C@H](CCC(N)=O)NC(=O)[C@@H](CO)NC(=O)[C@@H](N)Cc1c[nH]cn1)[C@@H](C)O)[C@@H](C)O)C(=O)N[C@@H](CO)C(=O)N[C@@H](CCCCN)C(=O)N[C@@H](Cc1ccc(O)cc1)C(=O)N[C@@H](CC(C)C)C(=O)N[C@@H](CC(=O)O)C(=O)N[C@@H](C)C(=O)N[C@@H](CCCNC(=N)N)C(=O)N[C@@H](C)C(=O)N[C@@H](C)C(=O)N[C@@H](Cc1c[nH]cn1)C(=O)N[C@@H](CC(=O)O)C(=O)N[C@@H](Cc1ccccc1)C(=O)N[C@H](C(=O)N[C@@H](CCC(N)=O)C(=O)N[C@@H](Cc1c[nH]c2ccccc12)C(=O)N[C@@H](CC(C)C)C(=O)N[C@@H](CC(C)C)C(=O)N[C@@H](CC(N)=O)C(=O)N[C@H](C(N)=O)[C@@H](C)O)C(C)C)C(=O)O)C(=O)O` [TP559] (H-H[dS]QGTFTSDK([γGlu-γGlu-Palmitoyl])SKYLDARAAHDFVQWLLNT-NH2), in that order: 0.4, 0.02 nM and 0.05 nM.
For “H-HSQGIFFSDYSKYLDSRRAQDFVQWLMNT-NH2 [PD52]”, the EC50 at human GCGR (Table 2, cAMP production) is 0.03 nM; at human GLP1R (setting [1]), 0.02 nM.
The corresponding values for “H-HSQGTFFSDYSKYLDSRRAQDFVQWLLET-NH2 [PD58]” are 0.03 nM and 0.02 nM.
The corresponding values for “H-HSQGTFTSDYSKYLDSIRAQDFVQWLMDT-NH2 [PD36]” are 0.04 nM and 0.06 nM.
The corresponding values for “H-HSQGTFTSDYSKYLDSLMAQDFVQWLMST-NH2 [PD22]” are 0.02 nM and 0.03 nM.
In the case of “H-HSQGTFTSDYSKYLDSRRAHDFVQWLLNT-NH2 [PD29]”, the EC50 was 0.02 nM at human GCGR (Table 2, cAMP production) and 0.02 nM at human GLP1R (setting [1]). Also, at human GCGR (Table 7), the Ratio turned out to be 1.
“HSQGTFTSDYSKYLDELRAYDFVQWLMNT-NH2 [PD27]”: the EC50 on human GCGR (Table 2, cAMP production) was determined as 0.05 nM; at human GLP1R (setting [1]), 0.03 nM.
As for “HSQGTFTSDYSKYLDNKRAQDFVQWLMQT-NH2 [PD37]”, the Ratio on human GCGR (Table 7) worked out at 3.2. The EC50 on human GCGR (setting [2]) is 0.16 nM; at human GLP1R (setting [3]), 0.05 nM.
Consider “HSQGTFTSDYSKYLDSKRAHDFVQWLLNT-NH2 [PD45]”, for which the concentration for a half-maximal effect (EC50) at human GCGR (Table 2, cAMP production) came to 0.03 nM; on human GLP1R (setting [1]) it was 0.02 nM.
The corresponding values for “HSQGTFTSDYSKYLDSRMAYDFVQWLMNT-NH2 [PD56]” are 0.08 nM and 0.05 nM.
